Assay results as given in PubChem BioAssay (NCI).
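Protocol summary: plate cells (96-well), add compound at 5 concentrations, incubate 48 h, interpolate endpoints linearly. The concentration for 50% growth inhibition is given as GI50. The concentration for full growth arrest is given as TGI.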

Columns and labels:
Assay in all cases: NCI anticancer screen, dose series, 48 h
HS 578T breast = system: HS 578T breast
HT29 colon = system: HT29 colon
SK-MEL-2 melanoma = system: SK-MEL-2 melanoma
NCI-H460 lung = system: NCI-H460 lung
U251 CNS = system: U251 CNS
MDA-MB-435 = system: MDA-MB-435
A549 NSCLC = system: A549 NSCLC
MALME-3M melanoma = system: MALME-3M melanoma

| Compound | TGI (HS 578T breast) [µM] | TGI (HT29 colon) [µM] | TGI (SK-MEL-2 melanoma) [µM] | TGI (NCI-H460 lung) [µM] | TGI (U251 CNS) [µM] | TGI (MDA-MB-435) [µM] | TGI (A549 NSCLC) [µM] | TGI (MALME-3M melanoma) [µM] | GI50 (HS 578T breast) [µM] | GI50 (HT29 colon) [µM] | GI50 (SK-MEL-2 melanoma) [µM] | GI50 (NCI-H460 lung) [µM] | GI50 (U251 CNS) [µM] | GI50 (MDA-MB-435) [µM] | GI50 (A549 NSCLC) [µM] | GI50 (MALME-3M melanoma) [µM] |
| --- | --- | --- | --- | --- | --- | --- | --- | --- | --- | --- | --- | --- | --- | --- | --- | --- |
| O=C(O)CNC(=O)c1ccccc1O | > 100 | > 100 | > 100 | > 100 | > 100 | > 100 | > 100 | > 100 | – | – | – | – | – | – | – | – |
| Cn1cc(C2=C(c3c4n(c5ccccc35)CC(CN)C4)C(=O)NC2=O)c2ccccc21 (centres undefined) | 5.6 | 11.8 | 5.35 | 7.8 | 5.77 | 4.72 | 10.9 | 8.52 | 1.03 | 3.04 | 1.69 | 3.79 | 2.61 | 1.11 | 3.74 | 4.17 |
| O=C(N/N=C/c1coc2ccc(Cl)cc2c1=O)c1ccncc1 | > 100 | > 100 | > 100 | > 100 | > 100 | > 100 | > 100 | – | 32.6 | > 100 | 74.3 | 68.2 | 39.7 | 73 | 98.2 | – |
| CN(C)c1ccc(/C=C(\C#N)c2cc3ccccc3n2C)cc1 | > 100 | 5.64 | > 100 | 4.4 | > 100 | – | > 100 | > 100 | 0.361 | 0.121 | 0.328 | 0.353 | 0.357 | – | 0.226 | 0.133 |
| O=C(CCCCC(=O)N/N=C\c1ccccc1Cl)N/N=C\c1ccccc1Cl | 49 | – | 33.9 | > 100 | 21 | – | > 100 | > 100 | 2.02 | – | 12.5 | 3.15 | 0.757 | – | 1.77 | 9.26 |
| O=C(/C=C/c1ccccn1)c1ccccc1O | 7.27 | 4.84 | 4.88 | 5.17 | 5.78 | 3.41 | 20.4 | – | 2.36 | 2.23 | 2.31 | 2.28 | 2.02 | 1.69 | 5.37 | – |
| CCCn1cc(C2=C(c3cn(C)c4ccccc34)C(=O)NC2=O)c2ccccc21 | 16 | 6.16 | 3.24 | 7.39 | 5.33 | 0.691 | > 25 | 9.37 | 0.766 | 0.783 | 0.702 | 1.04 | 1.17 | 0.0992 | 1.86 | 3.44 |
| C=CCCC(O)c1ccc(C(O)CCCCCCCCCCCC)o1 (centres undefined) | 55.4 | > 100 | 89.4 | > 100 | 31.9 | 34.7 | 39.2 | – | 24.2 | 32.3 | 28.6 | > 100 | 17.5 | 17.8 | 17.7 | – |
| CCOC(=O)C1c2[nH]c3ccccc3c2CCN1C(=O)c1ccco1 (centres undefined) | > 10 | > 10 | – | – | > 10 | > 10 | > 10 | > 10 | – | – | – | – | – | – | – | – |
